{"source": "patent US20120165340A1", "about": "“PTEN PHOSPHORYLATION-DRIVEN RESISTANCE TO CANCER TREATMENT AND ALTERED PATIENT PROGNOSIS” (Ludwing Institute for Cancer Research Ltd., priority 2009, published 2012)", "key": {"[1]": {"system": "Ph+ leukemia cells which express wt and mutated BCR-ABL", "details": "mouse, in vivo; cited from earlier work"}, "Lyn": {"target": "Lyn (Homo sapiens, UniProt P07948)", "sequence (P07948 whole entry, species assumed)": "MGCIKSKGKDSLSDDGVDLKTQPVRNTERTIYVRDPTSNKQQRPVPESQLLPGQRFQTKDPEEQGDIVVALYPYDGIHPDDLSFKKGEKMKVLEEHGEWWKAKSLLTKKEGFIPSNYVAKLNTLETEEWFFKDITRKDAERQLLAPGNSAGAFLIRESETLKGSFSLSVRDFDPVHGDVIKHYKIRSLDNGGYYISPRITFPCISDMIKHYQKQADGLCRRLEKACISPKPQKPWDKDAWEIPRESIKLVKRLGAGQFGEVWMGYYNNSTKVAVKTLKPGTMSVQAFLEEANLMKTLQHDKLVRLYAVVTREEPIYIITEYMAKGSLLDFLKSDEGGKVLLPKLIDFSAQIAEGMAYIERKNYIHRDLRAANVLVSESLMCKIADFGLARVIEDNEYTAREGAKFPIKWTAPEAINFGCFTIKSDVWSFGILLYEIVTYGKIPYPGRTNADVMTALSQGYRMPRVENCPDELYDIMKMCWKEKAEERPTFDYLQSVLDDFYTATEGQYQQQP", "details": "cited from earlier work"}, "[2]": {"details": "in vivo; cited from earlier work"}, "Ink4a/Arf-/- astrocytes": {"system": "Ink4a/Arf-/- astrocytes", "experiment": "Drug sensitivity assay, cell viability by WST-1", "assay_type": "cell-based, mouse", "details": "72 hours", "description": "Mouse Astrocytes. Ink4a/Arf^−/−1 and Pten^loxP/loxP 2 mice were obtained from the NCI mouse depository and intercrossed to generate described genotypes. Primary astrocytes were isolated from the neocortex of 4 day old pups, using standard astrocyte isolation culture conditions (Bachoo et al 2002). Conditional deletion of Pten^loxP/loxP was accomplished by infecting astrocyte cultures with adenovirus expressing Cre recombinase under the CMV promoter (Gene TransferVector Core, University of Iowa, Iowa City, Iowa). Effective Pten deletion was verified by western blot. EGFRvIII was expressed in these cells by retroviral infection as described previously (Bachoo et al 2002). (Reference: Bachoo, R. M. et al. Epidermal growth factor receptor and Ink4a/Arf: convergent mechanisms governing terminal differentiation and transformation along the neural stem cell to astrocyte axis. Cancer Cell 1, 269-77 (2002)).\nDrug sensitivity assays. Cells were plated at 1000 cells/well in 96 well plates and allowed to adhere for four hours prior to addition of Erlotinib and/or Dasatinib or solvent (DMSO) control. Cells were maintained in 5% serum during drug treatments and cell viability was measured using WST-1 assay (Clontech) following 72 hours exposure to drug.\nStatistical analysis. For quantitation and analysis of immunohistochemistry data, see above. For analysis of drug sensitivity data, 2-way ANOVA was performed using the KaleidaGraph program (Synergy Software)."}, "GBM39 cells": {"system": "GBM39 cells", "experiment": "PTEN Y240 phosphorylation in GBM39 glioma cells, western blot", "assay_type": "cell-based, human", "details": "pervanadate 100 μM for 15 minutes", "experimental": "Mice were sacrificed by CO2 inhalation followed by cervical dislocation, according to institutional guidelines. Subcutaneous tumors were removed and tumor tissue was minced into 0.1-0.5 mm^3 chunks in a 60 mm dish with 5 ml of freshly prepared, filter-sterilized digestion solution (12,500 units of Collagenase Type 2, 12,500 units of Collagenase Type 4, 20 mL DMEM (Serum Free), 20 uL of 1 mg/mL DNAase I). Tissue was placed into a sterile 15 ml specimen cup with an additional 10 ml of digestion solution and shaken (150 rpm) at 37 C for 3 hours before filtration through a 70/40 um filter. After centrifugation at 1000 rpm for 3 minutes, the supernatant was discarded. The pellet was resuspended in 1 ml of ACK buffer (150 mM NH4Cl, 10 mM KHCO3, 0.1 mM Na2EDTA, adjusted to pH 7.2-7.4 with 1N HCl) and incubated at room temperature for 3 minutes to lyse red blood cells. Cells were pelleted by centrifugation at 1000 rpm for 3 minutes and resuspended in culture medium (DMEM containing 10% fetal bovine serum plus L-glutamine and penicillin/streptomycin). Cell viability was determined by trypan blue exclusion and cells were plated at a density of approx 10^6 cells per 100 mm culture dish. Cells were maintained under standard cell culture conditions (37 C, 5% CO2 in a humidified incubator) and all experiments were conducted in cells prior to p4. […]"}, "anti-pY240 PTEN antibody": {"system": "anti-pY240 PTEN antibody", "experiment": "Peptide competition of anti-pY240 immunostaining", "assay_type": "binding", "details": "tissue sections from human GBM with wild type PTEN", "description": "Immunohistochemistry: Tissue sections were cut from blocks of formalin-fixed paraffin tumor tissue from glioblastoma patients treated at UCLA with the EGFR kinase inhibitors (erlotinib or gefitinib), including a subset of patients previously described^2. Tumor specimens were obtained according to a protocol approved by the institutional review board of UCLA. Pre-treatment tumor tissue was examined for 19 patients; post-treatment tissue was examined from 8 patients, including 7 patients for whom pre- and post-treatment tissue was available. […]"}}, "note": "Non-standard residues stand in square brackets, D forms with d. No end group written: not given here. pY = N[C@@H](Cc1ccc(OP(=O)(O)O)cc1)C(=O)O", "data": [{"compound": "Cc1ccc(NC(=O)c2ccc(CN3CC[C@H](N(C)C)C3)c(C(F)(F)F)c2)cc1Nc1nccc(-c2cncnc2)n1", "note": "[INNO-406]", "values": [{"measurement": "growth of Ph+ leukemia cells in murine CNS", "setting": "[1]", "value": "does inhibit growth"}, {"measurement": "Lyn inhibition versus phosphorylation of Src, Blk or Yes", "setting": "Lyn", "value": "inhibits Lyn without affecting the phosphorylation of Src-family kinases Src, Blk or Yes"}, {"measurement": "concentrations in the CNS relative to those in plasma", "setting": "[2]", "value": "about 10%"}]}, {"compound": "C#Cc1cccc(Nc2ncnc3cc(OCCOC)c(OCCOC)cc23)c1", "note": "[Erlotinib]", "values": [{"measurement": "sensitivity to Erlotinib (cell viability)", "setting": "Ink4a/Arf-/- astrocytes; EGFRvIII PTEN-null astrocytes reconstituted with PTEN Y240F mutant", "value": "significantly sensitized these cells to sub-micromolar doses"}, {"measurement": "sensitivity to Erlotinib (cell viability)", "setting": "Ink4a/Arf-/- astrocytes; EGFRvIII astrocytes reconstituted with WT PTEN", "value": "resistant to clinically achievable doses"}, {"measurement": "sensitivity to Erlotinib (cell viability)", "setting": "Ink4a/Arf-/- astrocytes; PTEN-null astrocytes expressing EGFRvIII", "value": "resistant to clinically achievable doses"}, {"measurement": "sensitivity to Erlotinib (cell viability)", "setting": "Ink4a/Arf-/- astrocytes; astrocytes expressing WT PTEN, with versus without EGFRvIII", "value": "sensitizes astrocytes expressing WT PTEN to Erlotinib"}]}, {"compound": "pervanadate", "values": [{"measurement": "induction of Y240 phosphorylation", "setting": "GBM39 cells", "value": "substantial increase in Y240 phosphorylation"}]}, {"compound": "FMY[243.03]FEFPQPLPVC[160.03]GDIK: Phosphorylated PTEN Y240 peptide that competes away antibody staining (FM[pY]FEFPQPLPVCGDIK; not fully specified (residue 13); printed as FMY[243.03]FEFPQPLPVC[160.03]GDIK; also: modified cysteine C13 (C[160.03]))", "values": [{"measurement": "competition of antibody staining in immunostaining", "setting": "anti-pY240 PTEN antibody", "value": "competes away antibody staining"}]}]}
